According to patent EP1393728A1, “Inverse agonists acting at virus-encoded G protein-coupled receptors” (priority 2002, dated 2004):

Key:
US28 [1] = target: T1, US28 (Human cytomegalovirus, UniProt P69332); assay: cell-based; parameters: species or system HCMV; details: for % 10^-5 remaining activity on US28 in inositol phosphate assay: at 10^-5; for inverse agonistic effect at US28 relative to the compound of Formula X (statement in words): structure-activity discussion of Table 1; for loss in inverse agonistic potency: relative to the compound of Formula X
Method: (§1) Cell culture, transfection and infection with HCMV. COS-7 cells were grown as previously described in the cited Casarosa reference. Transfection of the COS-7 cells was performed by DEAE-dextran, using 2 µg of DNA of each US28 construct per million cells. Human foreskin fibroblasts (HFFs) were cultured and infected with […] (strain AD169) or a deletion mutant Δ28-HCMV.
(§2) [^3H]-inositol phosphate production. Experiments in COS-7 cells and HFFs were performed as described in the references mentioned in the previous paragraph.
Data analysis. Curve fitting of data was carried out using the program Prism and IC50 values obtained by nonlinear regression analysis (GraphPad Software, Inc., San Diego, USA). Data are expressed as mean ± S.E.
In order to find inverse agonists for US28, a variety of compounds were screened for modulation of US28-mediated constitutive inositol phosphate (InsP) production. This approach led to identify the compound of Formula X as inverse agonist for US28.

US28 [2] = target: T1, US28; assay: biochemical; assay type: binding, HCMV
US28 [3] = target: T1, US28; assay: biochemical; assay type: binding, HCMV (strain AD169); details: AD169-infected HFFs
Method: as §1
(§3) Binding experimants. Labeling of RANTES (Peprotech, Rocky Hill, USA) with [^125I] and binding in COS-7 cells were performed as previously described (Gruijthuijsen et al., J. Virol. 76 (2002) 1328-1338).

US28 [4] = target: T1, US28; assay: cell-based; parameters: species or system HCMV (strain AD169)
Method: as §1, §2

US28 [5] = assay: cell-based; parameters: species or system HCMV (strain AD169); details: US28-deletion-mutant-HCMV- or mock-infected HFFs
Method: as §1, §2

RCMV-encoded R33 = target: T2, RCMV-encoded R33 (Rat cytomegalovirus, UniProt O12000); assay: R33-mediated InsP accumulation (PLC activation) in COS-7 cells; assay type: cell-based; details: concentration as high as 10 µM
T2 construct: expressed in transfected cells; host or cells: COS-7
Method: as §2
(§4) Moreover, other GPCRs were used as controls to ascertain specificity of action of this compound. As previously reported, expression ofRCMV-encoded R33 (Gruijthuijsen et al. J. Virol. 76 (2002), 1328-1338) or KSHV-encoded ORF74 (Rosenkilde et al. 274 (1999), 956-961) also leads to constitutive activation of phospholipase C.

E^277Q-US28 = E^277Q-US28 (Human cytomegalovirus, UniProt P69332, E277Q); assay type: binding, HCMV; details: E277Q-US28, [125I]-RANTES displacement
Description: (§5) DNA constructs. The cDNA encoding for US28 (see Casarosa et al. in J, Biol. Chem. 276 (2001) 1133-1137) was inserted into the mammalian vector pcDNAS. Δ(2-22)-US28 and the HA-tagged versions of both WT- and Δ(2-22)-US28 were generated by PCR. Single amino acid mutations, as for E^277A- and E^277Q.US28, were introduced using the Altered Sites® II in vitro Mutagenesis System (Promega, Madison, USA), according to manufacturer's protocol. All constructs were verified by dideoxy sequencing.
as §3
(§6) E^277 was therefore mutated into glutamine, to eliminate the charge but retain the hydrogen bonding potential of the side chain, and into alanine, to eliminate both the charge and the hydrogen bonding potential.

E^277A-US28 = E^277A-US28 (Human cytomegalovirus, UniProt P69332, E277A); assay type: binding, HCMV; details: E277A-US28, [125I]-RANTES displacement
Description: as §5, §3, §6

US28 [6] = target: T1, US28; assay type: binding, HCMV; details: in the presence of 10 µM compound of Formula X (725 ± 69 in its absence)
Method: as §3
Moreover, the present inventors investigated the effect of the compound of Formula X in a saturation binding assay of [^125I]-RANTES.

[7] = target: T3, human histamine H1 receptor (hH1) (Homo sapiens, UniProt P35367); assay: InsP production in COS-7 cells expressing the histamine H1 receptor; assay type: cell-based; details: 10 µM, COS-7 cells expressing the H1 receptor
T3 construct: expressed in transfected cells; host or cells: COS-7
Method: as §2
Furthermore, the compound of Formula X was tested on COS-7 cells expressing the human histamine H1 receptor (hH1). Like US28, this GPCR constitutively activates PLC enzymes via Gαq/11 proteins.

KSHV-encoded ORF74 = target: T4, KSHV-encoded ORF74 (Human herpesvirus 8 type P, UniProt Q98146); assay: ORF74-mediated InsP accumulation (PLC activation) in COS-7 cells; assay type: cell-based; details: concentration as high as 10 µM
T4 construct: expressed in transfected cells; host or cells: COS-7
Method: as §2, §4

Δ(2-22)-US28 = Δ(2-22)-US28 (Human cytomegalovirus, UniProt P69332); assay: cell-based; parameters: species or system HCMV
Description: as §5, §2

transfected cells = assay: AlamarBlue toxicity test; assay type: cell-based; details: AlamarBlue assay, 2 hours incubation, data not shown
Method: Toxicity test. The AlamarBlue^TM assay (Serotec, Oxford, UK) was performed following the manufacturer's protocol. Briefly, transfected cells were incubated with the compound of Formula X for 2 hours, followed by the addiction of the AlamarBlue dye.
After 1 hour, the fluorescence was monitored at 560 nm excitation wavelength and 590 nm emission wavelenght in a Victor^2 (PerkinElmer, Boston, USA).

[8] = test system: US28-mediated HIV-1 entry; assay: HIV-1 infection assay (luciferase reporter virus) in HEK293-T cells with CD4 and US28; assay type: cell-based; details: Human immunodeficiency virus 1, HEK-293T
Method: HIV-1 infection assay. HEK293-T cells were transiently transfected with pcDNA1-US28 and pcDNA1-CD4 using the calcium phosphate method and cultured overnight in 48 well plates. The following day, cells were incubated with different concentrations of the compound of Formula X (dissolved in DMSO) or medium (containing an equal amount of DMSO) for 2 hours before infection with an R5-tropic HIV- 1 virus containing the luciferase reporter gene under the LTR promoter. After overnight incubation, cells were washed twice and cultivated in fresh medium. 3 days after infection, the luciferase activity was quantitated using the Luciferase Assay System (Promega, Madison, USA).
(§7) In order to test the ability of the compound of Formula X to block viral entry via US28, a reporter gene assay was used. In this assay, HEK-293T cells expressing US28 and CD4 are infected by a luciferase-containing HIV-1 reporter virus. Consequently, the level of cellular luciferase activity is proportional to HIV-1 entry. […] Luciferase activity is increased approximately 20 fold in the presence of US28 when compared to cells expressing CD4 alone (fig. 6A). […] At 10^-6M, the compound of Formula X reduces HIV-1 entry to 41 ± 8 % of control cells. Determination of a complete dose-response curve was not possible due to toxic effects of DM50 and the compound at higher concentrations, as determined by MTT test.

HEK-293T cells = assay: MTT test; assay type: cell-based; details: higher concentrations (above 10^-6M), together with the solvent
Description: as §7

[9] = IC50 InsP, inhibition of US28-mediated InsP production, COS-7 cells, N.A. = non active

T1 sequence (P69332 whole entry): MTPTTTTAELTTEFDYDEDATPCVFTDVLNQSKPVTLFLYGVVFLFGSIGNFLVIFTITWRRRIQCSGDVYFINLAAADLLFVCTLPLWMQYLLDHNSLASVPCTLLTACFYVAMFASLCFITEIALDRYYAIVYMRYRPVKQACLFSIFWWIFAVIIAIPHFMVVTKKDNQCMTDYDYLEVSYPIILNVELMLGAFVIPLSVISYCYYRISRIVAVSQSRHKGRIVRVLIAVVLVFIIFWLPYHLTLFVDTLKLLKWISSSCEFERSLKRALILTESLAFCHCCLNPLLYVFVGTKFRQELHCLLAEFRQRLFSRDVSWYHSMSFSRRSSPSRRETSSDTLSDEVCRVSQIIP
Chain of Δ(2-22)-US28 (P69332 22-354, looked up, stated change not applied): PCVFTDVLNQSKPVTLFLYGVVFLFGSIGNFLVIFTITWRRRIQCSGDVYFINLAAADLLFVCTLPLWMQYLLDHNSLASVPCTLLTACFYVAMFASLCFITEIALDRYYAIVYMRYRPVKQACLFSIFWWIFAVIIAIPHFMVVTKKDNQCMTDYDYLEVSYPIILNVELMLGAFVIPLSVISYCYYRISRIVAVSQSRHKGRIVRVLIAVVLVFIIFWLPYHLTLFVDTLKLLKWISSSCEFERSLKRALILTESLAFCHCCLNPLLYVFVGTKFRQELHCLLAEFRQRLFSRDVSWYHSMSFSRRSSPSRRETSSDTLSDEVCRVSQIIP
Chain of E^277Q-US28 (P69332 whole entry E277Q): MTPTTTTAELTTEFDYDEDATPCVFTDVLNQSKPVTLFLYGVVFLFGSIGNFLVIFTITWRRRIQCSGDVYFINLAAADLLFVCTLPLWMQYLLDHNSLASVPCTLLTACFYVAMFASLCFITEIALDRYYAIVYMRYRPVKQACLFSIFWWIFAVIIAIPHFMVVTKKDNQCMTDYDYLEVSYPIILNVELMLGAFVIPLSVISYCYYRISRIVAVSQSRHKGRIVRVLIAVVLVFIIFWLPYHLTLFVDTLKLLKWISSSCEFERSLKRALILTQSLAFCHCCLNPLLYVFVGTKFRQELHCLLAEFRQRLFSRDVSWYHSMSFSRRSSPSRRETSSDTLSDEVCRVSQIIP
T4 sequence (Q98146 whole entry): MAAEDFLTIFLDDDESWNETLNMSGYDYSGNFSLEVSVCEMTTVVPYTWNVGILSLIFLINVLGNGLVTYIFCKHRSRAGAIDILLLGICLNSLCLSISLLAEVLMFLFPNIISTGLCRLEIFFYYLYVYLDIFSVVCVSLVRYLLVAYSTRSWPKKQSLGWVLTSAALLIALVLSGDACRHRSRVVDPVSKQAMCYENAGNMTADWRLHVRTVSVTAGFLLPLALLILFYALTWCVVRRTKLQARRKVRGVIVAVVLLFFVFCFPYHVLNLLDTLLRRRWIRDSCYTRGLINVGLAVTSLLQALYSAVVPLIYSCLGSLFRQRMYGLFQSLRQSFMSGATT
T3 sequence (P35367 whole entry): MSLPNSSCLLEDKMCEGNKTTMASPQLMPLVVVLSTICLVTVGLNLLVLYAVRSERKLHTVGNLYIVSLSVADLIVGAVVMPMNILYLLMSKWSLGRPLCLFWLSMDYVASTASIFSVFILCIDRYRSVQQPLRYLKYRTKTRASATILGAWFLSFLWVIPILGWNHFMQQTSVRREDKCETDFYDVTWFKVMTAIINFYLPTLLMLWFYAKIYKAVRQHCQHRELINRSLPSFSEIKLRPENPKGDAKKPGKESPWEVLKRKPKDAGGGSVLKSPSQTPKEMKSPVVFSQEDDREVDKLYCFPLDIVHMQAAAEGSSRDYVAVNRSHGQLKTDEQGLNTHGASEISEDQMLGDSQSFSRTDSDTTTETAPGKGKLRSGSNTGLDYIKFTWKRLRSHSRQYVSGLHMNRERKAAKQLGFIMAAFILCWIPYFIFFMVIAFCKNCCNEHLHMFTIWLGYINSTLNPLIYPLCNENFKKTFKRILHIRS
Chain of E^277A-US28 (P69332 whole entry E277A): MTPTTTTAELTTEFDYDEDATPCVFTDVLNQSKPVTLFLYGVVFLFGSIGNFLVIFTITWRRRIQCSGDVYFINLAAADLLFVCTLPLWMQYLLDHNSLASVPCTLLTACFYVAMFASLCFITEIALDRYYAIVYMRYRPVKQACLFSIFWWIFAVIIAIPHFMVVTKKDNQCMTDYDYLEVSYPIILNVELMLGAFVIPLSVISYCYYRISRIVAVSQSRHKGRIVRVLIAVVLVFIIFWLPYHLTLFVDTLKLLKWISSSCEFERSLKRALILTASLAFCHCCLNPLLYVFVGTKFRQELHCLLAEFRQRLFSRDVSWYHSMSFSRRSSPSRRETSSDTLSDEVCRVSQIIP
T2 sequence (O12000 whole entry): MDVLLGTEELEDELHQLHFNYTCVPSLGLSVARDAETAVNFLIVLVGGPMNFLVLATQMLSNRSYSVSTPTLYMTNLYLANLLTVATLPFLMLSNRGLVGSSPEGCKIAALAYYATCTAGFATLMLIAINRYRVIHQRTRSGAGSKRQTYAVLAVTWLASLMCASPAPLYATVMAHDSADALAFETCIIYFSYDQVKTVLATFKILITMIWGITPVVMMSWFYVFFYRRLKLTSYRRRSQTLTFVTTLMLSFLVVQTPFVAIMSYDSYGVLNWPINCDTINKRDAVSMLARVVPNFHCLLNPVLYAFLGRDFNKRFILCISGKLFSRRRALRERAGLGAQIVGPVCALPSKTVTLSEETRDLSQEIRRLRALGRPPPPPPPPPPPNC

N#CC(CCCN1CCN(c2ccc(Cl)cc2)CC1)(c1ccccc1)c1ccccc1 [VUF5658]
% 10^-5 remaining activity on US28 in inositol phosphate assay (US28 [1]): 88%
inverse agonistic effect at US28 relative to the compound of Formula X (statement in words) (US28 [1]): inactive

O=C(CCCN1CCC(O)(c2ccc(Cl)cc2)CC1)c1ccccc1 [VUF5666]
% 10^-5 remaining activity on US28 in inositol phosphate assay (US28 [1]): 70%

N#CC(CCCN1CCC(C(=O)O)CC1)(c1ccccc1)c1ccccc1 [VUF5718]
% 10^-5 remaining activity on US28 in inositol phosphate assay (US28 [1]): 85%

N#CC(CCCN1CC=C(c2ccc(Cl)cc2)CC1)(c1ccccc1)c1ccccc1 [VUF5664]
% 10^-5 remaining activity on US28 in inositol phosphate assay (US28 [1]): 83%

N#CC1(CCCN2CCC(O)(c3ccc(Cl)cc3)CC2)c2ccccc2CCc2ccccc21 [VUF5713]
IC50 (US28 [2]): 9.6 µM
IC50 (US28 [1]; [9]): 5.3 µM
% 10^-5 remaining activity on US28 in inositol phosphate assay (US28 [1]): -5%
inverse agonistic effect at US28 relative to the compound of Formula X (statement in words) (US28 [1]): comparable potencies

OC1(c2ccc(Cl)cc2)CCN(CCCC(c2ccccc2)c2ccccc2)CC1 [VUF5667]
IC50 (US28 [2]): 5.9 µM
IC50 (US28 [1]; [9]): 4.2 µM
% 10^-5 remaining activity on US28 in inositol phosphate assay (US28 [1]): 23%
inverse agonistic effect at US28 relative to the compound of Formula X (statement in words) (US28 [1]): does not affect the activity

NCC(CCCN1CCC(O)(c2ccc(Cl)cc2)CC1)(c1ccccc1)c1ccccc1 [VUF5728]
% 10^-5 remaining activity on US28 in inositol phosphate assay (US28 [1]): 10%

N#CC(O)(CCCN1CCC(O)(c2ccc(Cl)cc2)CC1)c1ccccc1 (stereo not shown) [VUF5715]
inverse agonistic effect at US28 relative to the compound of Formula X (statement in words) (US28 [1]): loss of effect

CC(C)(C)c1ccc(C(O)CCCN2CCC(C(O)(c3ccccc3)c3ccccc3)CC2)cc1 (stereo not drawn) [Terfenadine, α-[4-(1,1-dimethylethyl)phenyl]-4-(hydroxydiphenylmethyl)-1-piperidinebutanol, reference compound]
% 10^-5 remaining activity on US28 in inositol phosphate assay (US28 [1]): 15%

N#CC(CCCN1CCC(c2ccc(Cl)cc2)CC1)(c1ccccc1)c1ccccc1 [VUF5662]
IC50 (US28 [2]; [125I]-RANTES binding at US28, COS-7 cells, N.A. = non active, read-out: IC50 binding): 10.5 µM
IC50 (US28 [1]; [9]): 14 µM
% 10^-5 remaining activity on US28 in inositol phosphate assay (US28 [1]): 60%
loss in inverse agonistic potency (US28 [1]): five- to ten-fold

OC1(c2ccc(Cl)cc2)CCN(CCCOc2ccccc2)CC1 [VUF5714]
% 10^-5 remaining activity on US28 in inositol phosphate assay (US28 [1]): 77%

N#CC(CCCN1CCC(O)(c2ccccc2)CC1)(c1ccccc1)c1ccccc1 [VUF5660]
IC50 (US28 [2]): 35 µM
IC50 (US28 [1]; [9]): 29 µM
% 10^-5 remaining activity on US28 in inositol phosphate assay (US28 [1]): 60%
loss in inverse agonistic potency (US28 [1]): five- to ten-fold

N#CC(CCCN1CCC(O)(c2ccc(Cl)cc2)CC1)(c1ccccc1)c1ccccc1 [Formula X]
IC50 (US28 [3]; IC50 of [125I]-RANTES displacement): 708 nM
IC50 (US28 [3]; pIC50 of [125I]-RANTES displacement): 708 nM
IC50 (US28 [4]): 776 nM
effect on InsP signaling (US28 [5]): does not affect
IC50 (US28 [2]): 8.4 µM
modulation of R33-mediated PLC activation (RCMV-encoded R33): does not modulate
affinity compared to WT-US28 (E^277Q-US28): markedly reduced
affinity compared to WT-US28 (E^277A-US28): markedly reduced
Bmax value of [125I]-RANTES (US28 [6]): 380 ± 36 fmol/mg protein
kind of inverse agonism at US28 (inhibition of signaling complete) (US28 [1]; COS-7 cells): full inverse agonist
IC50 (US28 [1]; [9]): 3.5 µM
% 10^-5 remaining activity on US28 in inositol phosphate assay (US28 [1]): 10%
IC50 (US28 [1]; pIC50 of US28 mediated InsP production, COS-7 cells, WT-US28): 3.47 µM
basal or histamine-induced production of InsP [7]: does not alter
modulation of ORF74-mediated PLC activation (KSHV-encoded ORF74): does not modulate
IC50 (Δ(2-22)-US28): 4.47 µM
inhibition of constitutive signaling (Δ(2-22)-US28; Δ(2-22)-US28, COS-7 cells): totally inhibits
cellular toxicity (transfected cells): did not show cellular toxicity
activity at 1 µM ([8]; read-out: HIV-1 entry, % of control cells): 41 ± 8%
inhibition at 1 µM ([8]; read-out: inhibition of viral entry): 60%
toxicity by MTT test (HEK-293T cells): toxic effects

N#CC(CCCN1CCC(C(N)=O)CC1)(c1ccccc1)c1ccccc1 [VUF5720]
% 10^-5 remaining activity on US28 in inositol phosphate assay (US28 [1]): 87%

N#CC1(CCCN2CCC(O)(c3ccc(Cl)cc3)CC2)c2ccccc2CSc2ccccc21 (stereo not shown) [VUF5727]
% 10^-5 remaining activity on US28 in inositol phosphate assay (US28 [1]): 14%

O=C(NCC(CCCN1CCC(O)(c2ccc(Cl)cc2)CC1)(c1ccccc1)c1ccccc1)NC1CCNCC1 [VUF5717]
% 10^-5 remaining activity on US28 in inositol phosphate assay (US28 [1]): 100%
